In article PMC7452891, “Cytokinin fluoroprobe reveals multiple sites of cytokinin perception at plasma membrane and endoplasmic reticulum” (Nature Communications, 2020):

What was measured:
[1] = target: T1, CRE1/AHK4 (ARABIDOPSIS HISTIDINE KINASE 4) (Arabidopsis thaliana, UniProt Q9C5U0); assay: radioligand ([[…]-3H]tZ, […]) in competitive binding assay with E. coli cells
T1 construct: expressed in E. coli KMI001 (pIN-III-AHK4)

[2] = target: T2, AHK3 (Arabidopsis thaliana, UniProt Q9C5U1); assay: as above
T2 construct: expressed in E. coli KMI001 (pSTV28-AHK3)
T2 sequence (Q9C5U1 1-1036): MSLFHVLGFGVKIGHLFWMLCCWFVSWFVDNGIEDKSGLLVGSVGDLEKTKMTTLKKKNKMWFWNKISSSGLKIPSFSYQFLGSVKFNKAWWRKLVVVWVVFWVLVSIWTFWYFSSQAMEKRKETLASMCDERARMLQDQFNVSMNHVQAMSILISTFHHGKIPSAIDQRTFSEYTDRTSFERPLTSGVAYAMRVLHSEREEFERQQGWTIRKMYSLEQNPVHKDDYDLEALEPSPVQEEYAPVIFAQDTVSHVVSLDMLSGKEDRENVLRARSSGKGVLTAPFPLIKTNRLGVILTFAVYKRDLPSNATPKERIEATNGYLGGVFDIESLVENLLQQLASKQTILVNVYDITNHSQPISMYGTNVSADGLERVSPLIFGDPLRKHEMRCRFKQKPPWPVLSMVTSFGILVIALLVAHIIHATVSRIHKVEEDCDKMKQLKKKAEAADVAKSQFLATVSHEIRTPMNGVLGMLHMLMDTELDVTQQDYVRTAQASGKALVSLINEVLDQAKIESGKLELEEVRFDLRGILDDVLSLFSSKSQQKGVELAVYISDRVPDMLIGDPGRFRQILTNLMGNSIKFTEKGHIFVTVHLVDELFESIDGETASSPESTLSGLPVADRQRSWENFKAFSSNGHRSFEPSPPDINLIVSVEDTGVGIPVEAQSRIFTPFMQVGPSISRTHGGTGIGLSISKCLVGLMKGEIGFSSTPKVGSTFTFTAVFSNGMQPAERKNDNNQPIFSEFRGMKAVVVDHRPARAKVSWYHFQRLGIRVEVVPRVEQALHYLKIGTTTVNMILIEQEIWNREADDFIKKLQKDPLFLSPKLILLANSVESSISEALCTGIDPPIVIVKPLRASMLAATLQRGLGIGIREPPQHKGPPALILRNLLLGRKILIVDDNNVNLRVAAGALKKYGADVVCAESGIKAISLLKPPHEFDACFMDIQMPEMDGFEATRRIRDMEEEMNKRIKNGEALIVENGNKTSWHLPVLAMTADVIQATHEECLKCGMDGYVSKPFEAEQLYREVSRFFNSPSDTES

[3] = target: T2, AHK3; assay: competitive radioligand binding assay ([[…]-3H]tZ, [[…]-3H]iP) with E. coli cells expressing the receptor; format: cell-based
[4] = target: T1, CRE1/AHK4 (ARABIDOPSIS HISTIDINE KINASE 4); assay: as above; format: cell-based
[5] = target: T3, AtCKX2 (CYTOKININ OXIDASE/DEHYDROGENASE) (Arabidopsis thaliana, UniProt Q9FUJ3); assay: in vitro enzymatic reaction with AtCKX2 (kcat, Vmax/Km); format: biochemical
T3 construct: gene CKX2
T3 sequence (Q9FUJ3 23-501): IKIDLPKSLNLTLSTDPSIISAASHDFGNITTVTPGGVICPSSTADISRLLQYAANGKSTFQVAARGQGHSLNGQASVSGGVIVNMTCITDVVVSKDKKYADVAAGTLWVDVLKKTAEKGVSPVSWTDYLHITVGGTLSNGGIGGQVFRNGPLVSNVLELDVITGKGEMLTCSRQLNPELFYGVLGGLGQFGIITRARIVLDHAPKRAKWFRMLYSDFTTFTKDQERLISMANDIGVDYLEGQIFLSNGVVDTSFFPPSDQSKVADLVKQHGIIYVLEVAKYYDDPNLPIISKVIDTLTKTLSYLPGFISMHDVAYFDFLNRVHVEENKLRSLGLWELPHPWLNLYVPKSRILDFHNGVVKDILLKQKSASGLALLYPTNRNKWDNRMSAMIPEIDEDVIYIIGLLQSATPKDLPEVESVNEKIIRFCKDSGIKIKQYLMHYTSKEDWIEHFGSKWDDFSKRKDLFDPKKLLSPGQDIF

T1 sequence (Q9C5U0 whole entry): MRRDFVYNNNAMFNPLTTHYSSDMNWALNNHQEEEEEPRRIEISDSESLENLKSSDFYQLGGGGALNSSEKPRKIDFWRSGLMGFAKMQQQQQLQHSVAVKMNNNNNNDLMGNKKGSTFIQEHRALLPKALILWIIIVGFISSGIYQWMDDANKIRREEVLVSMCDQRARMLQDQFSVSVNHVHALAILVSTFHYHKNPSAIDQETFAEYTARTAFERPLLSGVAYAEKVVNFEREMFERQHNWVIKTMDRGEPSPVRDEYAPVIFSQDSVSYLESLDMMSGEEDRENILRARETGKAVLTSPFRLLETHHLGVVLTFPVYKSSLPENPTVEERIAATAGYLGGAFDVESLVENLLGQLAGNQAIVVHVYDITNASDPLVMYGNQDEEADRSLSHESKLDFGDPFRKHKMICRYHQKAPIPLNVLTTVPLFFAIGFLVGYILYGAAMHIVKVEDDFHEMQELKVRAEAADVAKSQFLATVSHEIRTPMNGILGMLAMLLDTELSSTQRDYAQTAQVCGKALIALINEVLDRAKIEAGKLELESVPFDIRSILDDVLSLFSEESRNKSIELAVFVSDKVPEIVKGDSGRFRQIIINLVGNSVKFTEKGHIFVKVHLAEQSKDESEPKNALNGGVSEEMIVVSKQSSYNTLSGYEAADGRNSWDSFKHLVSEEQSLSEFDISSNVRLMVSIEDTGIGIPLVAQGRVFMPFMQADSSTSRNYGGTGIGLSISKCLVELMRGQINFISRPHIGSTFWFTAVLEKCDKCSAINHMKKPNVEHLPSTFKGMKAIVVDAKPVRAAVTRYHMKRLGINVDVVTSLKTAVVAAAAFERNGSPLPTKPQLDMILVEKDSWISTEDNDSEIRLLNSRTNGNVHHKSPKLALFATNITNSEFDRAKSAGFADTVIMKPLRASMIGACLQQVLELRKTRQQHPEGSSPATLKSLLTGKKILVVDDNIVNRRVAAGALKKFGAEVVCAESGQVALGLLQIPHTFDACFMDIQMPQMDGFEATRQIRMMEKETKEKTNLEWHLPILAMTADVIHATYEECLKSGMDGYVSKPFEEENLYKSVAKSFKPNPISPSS

SMILES	radioligand ([2-3H]tZ, 3 nM) in competitive binding assay with E. coli cells [1]	radioligand ([2-3H]tZ, 3 nM) in competitive binding assay with E. coli cells [2]	Ki [3] [µM]	Ki [4] [µM]	in vitro enzymatic reaction with AtCKX2 (kcat, Vmax/Km) [5]
C/C(=C\CNc1ncnc2[nH]cnc12)CO [tZ]	iP-NBD competes for receptor binding with radiolabelled natural cytokinins iP and tZ	iP-NBD competes for receptor binding with radiolabelled natural cytokinins iP and tZ			
CC(C)=CCNc1ncnc2c1ncn2CCNc1ccc([N+](=O)[O-])c2nonc12 [iP-NBD]			~37	~1.4	AtCKX2 converted iP-NBD to the product with approx. six times lower turnover rate kcat compared to the parental iP
